According to ChEMBL document CHEMBL1137685, “A three-step synthesis from rebeccamycin of an efficient checkpoint kinase 1 inhibitor” (Eur J Med Chem, 2009):

How the values were obtained:
[1] = target: T1, Serine/threonine-protein kinase Chk1 (Homo sapiens, UniProt O14757); assay: Inhibition of GST-tagged human full-length CHK1 expressed in Sf9 cells
T1 sequence (O14757 whole entry): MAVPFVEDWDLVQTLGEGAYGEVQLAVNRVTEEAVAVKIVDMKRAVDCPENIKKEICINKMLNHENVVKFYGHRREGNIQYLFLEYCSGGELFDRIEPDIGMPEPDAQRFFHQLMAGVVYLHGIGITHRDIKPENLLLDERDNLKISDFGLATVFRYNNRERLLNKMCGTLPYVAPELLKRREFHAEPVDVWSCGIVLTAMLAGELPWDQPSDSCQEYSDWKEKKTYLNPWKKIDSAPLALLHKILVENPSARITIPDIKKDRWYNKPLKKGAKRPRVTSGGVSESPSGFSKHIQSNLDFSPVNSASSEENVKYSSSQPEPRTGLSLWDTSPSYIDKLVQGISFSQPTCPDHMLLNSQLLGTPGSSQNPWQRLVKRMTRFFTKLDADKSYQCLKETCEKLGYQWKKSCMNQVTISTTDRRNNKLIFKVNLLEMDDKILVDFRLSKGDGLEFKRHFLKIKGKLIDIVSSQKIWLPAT

[2] = target: Proto-oncogene tyrosine-protein kinase Src (Homo sapiens) (UniProt P12931); assay: Inhibition of Src at 1 uM
[3] = target: T2, Serine/threonine-protein kinase Chk1 (Homo sapiens) (UniProt O14757); conditions: Sf9, 0.1 uM
T2 sequence (whole entry): T1 sequence (O14757 whole entry)
Description: Inhibition of GST-tagged human full-length CHK1 expressed in Sf9 cells at 0.1 uM

Sequence of Proto-oncogene tyrosine-protein kinase Src (Homo sapiens) (P12931 2-536 limits assumed): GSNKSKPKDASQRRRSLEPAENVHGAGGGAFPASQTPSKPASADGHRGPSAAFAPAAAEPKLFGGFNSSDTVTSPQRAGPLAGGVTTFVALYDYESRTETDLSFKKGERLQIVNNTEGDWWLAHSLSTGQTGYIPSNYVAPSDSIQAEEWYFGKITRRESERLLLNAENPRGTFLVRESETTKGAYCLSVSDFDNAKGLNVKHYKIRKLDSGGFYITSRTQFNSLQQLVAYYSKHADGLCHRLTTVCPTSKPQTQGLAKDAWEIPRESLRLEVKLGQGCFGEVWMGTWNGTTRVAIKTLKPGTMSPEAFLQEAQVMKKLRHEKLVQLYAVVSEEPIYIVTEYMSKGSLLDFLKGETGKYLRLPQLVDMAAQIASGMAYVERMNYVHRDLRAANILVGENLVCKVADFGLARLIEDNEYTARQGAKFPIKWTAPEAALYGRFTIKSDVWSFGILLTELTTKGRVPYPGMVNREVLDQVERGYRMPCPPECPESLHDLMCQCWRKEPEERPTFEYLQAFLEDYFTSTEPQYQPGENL

IC50 [1]: 2.8 nM | inhibition [2]: 35% | inhibition [3]: 90%
SMILES: CO[C@H]1[C@H](O)[C@H]2[C@@H](O[C@@H]1CN)n1c3ccccc3c3c4c(c5c6ccccc6n2c5c31)C(=O)NC4=O
